# From ChEMBL document CHEMBL3044649, “Zn(OTf)2-catalyzed three component, one-pot cyclocondensation reaction of some new octahydroquinazolinone derivatives and access their bio-potential” (2012)
# Columns and labels:
# Assay type in all cases: functional
# [1] = system: Aspergillus fumigatus; assay: Antimicrobial activity against Aspergillus fumigatus MTCC 3008 after 24 to 48 hr by broth microdilution method
# [2] = system: Candida albicans; assay: Antimicrobial activity against Candida albicans MTCC 227 after 24 to 48 hr by broth microdilution method
# [3] = system: Escherichia coli; assay: Antimicrobial activity against Escherichia coli MTCC 443 after 24 to 48 hr by broth microdilution method
# [4] = system: Clostridium tetani; assay: Antimicrobial activity against Clostridium tetani MTCC 449 after 24 to 48 hr by broth microdilution method
# [5] = system: Salmonella typhi; assay: Antimicrobial activity against Salmonella enterica subsp. enterica serovar Typhi MTCC 98 after 24 to 48 hr by broth microdilution method
# [6] = system: Bacillus subtilis; assay: Antimicrobial activity against Bacillus subtilis MTCC 441 after 24 to 48 hr by broth microdilution method
# [7] = system: Streptococcus pneumoniae; assay: Antimicrobial activity against Streptococcus pneumoniae MTCC 1936 after 24 to 48 hr by broth microdilution method
# [8] = system: Vibrio cholerae; assay: Antimicrobial activity against Vibrio cholerae MTCC 3906 after 24 to 48 hr by broth microdilution method
Molecule,MIC [1] [µg/mL],MIC [2] [µg/mL],MIC [3] [µg/mL],MIC [4] [µg/mL],MIC [5] [µg/mL],MIC [6] [µg/mL],MIC [7] [µg/mL],MIC [8] [µg/mL]
COC1=CC(=O)C[C@@H](C)[C@]12Oc1c(Cl)c(OC)cc(OC)c1C2=O [GRISEOFULVIN],100,500,–,–,–,–,–,–
CC1(C)S[C@@H]2[C@H](NC(=O)[C@H](N)c3ccccc3)C(=O)N2[C@H]1C(=O)O [AMPICILLIN],–,–,100,250,100,250,100,100
Cc1ccc2[nH]c(=O)c(C3NC(=S)NC4=C3C(=O)CCC4)cc2c1 (centres undefined),500,200,500,500,500,500,500,500
CC1(C)CC(=O)C2=C(C1)NC(=S)NC2c1cc2cc(Cl)ccc2[nH]c1=O (centres undefined),1000,500,125,250,25,50,50,50
O=C1NC2=C(C(=O)CCC2)C(c2cc3ccccc3[nH]c2=S)N1 (centres undefined),500,1000,500,500,200,500,500,500
GENTAMICIN,–,–,0.05,5,5,1,0.5,5
COc1ccc2[nH]c(=O)c(C3NC(=S)NC4=C3C(=O)CC(C)(C)C4)cc2c1 (centres undefined),> 1000,500,500,200,250,200,200,200
NYSTATIN,100,100,–,–,–,–,–,–
COc1ccc2[nH]c(=O)c(C3NC(=S)NC4=C3C(=O)CCC4)cc2c1 (centres undefined),> 1000,500,50,200,125,200,200,200
CC1(C)CC(=O)C2=C(C1)N(c1ccccc1)C(=S)NC2c1cc2ccccc2[nH]c1=O (centres undefined),1000,250,250,250,200,500,500,500
CC1(C)CC(=O)C2=C(C1)NC(=O)NC2c1cc2cc(Cl)ccc2[nH]c1=O (centres undefined),> 1000,500,100,100,200,200,500,500
O=C1NC2=C(C(=O)CCC2)C(c2cc3cc(Cl)ccc3[nH]c2=O)N1 (centres undefined),1000,1000,200,500,250,250,500,100
Cc1ccc2[nH]c(=O)c(C3NC(=S)N(c4ccccc4)C4=C3C(=O)CCC4)cc2c1 (centres undefined),500,1000,500,250,250,500,500,500
O=C1CCCC2=C1C(c1cc3cc(Cl)ccc3[nH]c1=O)NC(=S)N2 (centres undefined),1000,500,100,250,200,250,250,250
O=C(O)c1cn(C2CC2)c2cc(N3CCNCC3)c(F)cc2c1=O [CIPROFLOXACIN],–,–,25,–,25,–,50,25
COc1ccc2[nH]c(=O)c(C3NC(=O)NC4=C3C(=O)CC(C)(C)C4)cc2c1 (centres undefined),1000,500,100,100,150,250,250,50

Molecule,MIC [1] [µg/mL],MIC [2] [µg/mL],MIC [3] [µg/mL],MIC [4] [µg/mL],MIC [5] [µg/mL],MIC [6] [µg/mL],MIC [7] [µg/mL],MIC [8] [µg/mL]
Cc1ccc2[nH]c(=O)c(C3NC(=S)NC4=C3C(=O)CC(C)(C)C4)cc2c1 (centres undefined),> 1000,> 1000,250,100,150,100,100,100
Cc1ccc2[nH]c(=O)c(C3NC(=S)N(c4ccccc4)C4=C3C(=O)CC(C)(C)C4)cc2c1 (centres undefined),500,1000,1000,250,500,250,1000,250
Cc1ccc2[nH]c(=O)c(C3NC(=O)NC4=C3C(=O)CC(C)(C)C4)cc2c1 (centres undefined),1000,500,100,100,250,100,100,1000
CC1(C)CC(=O)C2=C(C1)NC(=O)NC2c1cc2ccccc2[nH]c1=O (centres undefined),500,500,100,200,250,500,250,250
O=C1CCCC2=C1C(c1cc3ccccc3[nH]c1=S)NC(=S)N2 (centres undefined),> 1000,250,250,250,200,250,500,250
CC1(C)CC(=O)C2=C(C1)NC(=S)NC2c1cc2ccccc2[nH]c1=O (centres undefined),500,500,125,500,150,500,500,500
CC1(C)CC(=O)C2=C(C1)NC(=S)NC2c1cc2ccccc2[nH]c1=S (centres undefined),500,250,100,200,100,250,500,250
O=C1CCCC2=C1C(c1cc3ccccc3[nH]c1=O)NC(=S)N2 (centres undefined),200,100,100,200,500,200,200,500
CC1(C)CC(=O)C2=C(C1)NC(=O)NC2c1cc2ccccc2[nH]c1=S (centres undefined),100,100,500,500,500,500,250,200
Cc1ccc2[nH]c(=O)c(C3NC(=O)NC4=C3C(=O)CCC4)cc2c1 (centres undefined),1000,1000,500,200,500,500,100,200
O=C(N[C@H](CO)[C@H](O)c1ccc([N+](=O)[O-])cc1)C(Cl)Cl [CHLORAMPHENICOL],–,–,50,50,50,50,50,50
O=C1NC2=C(C(=O)CCC2)C(c2cc3ccccc3[nH]c2=O)N1 (centres undefined),> 1000,500,250,100,250,200,100,500
CCn1cc(C(=O)O)c(=O)c2cc(F)c(N3CCNCC3)cc21 [NORFLOXACIN],–,–,10,50,10,100,10,10
COc1ccc2[nH]c(=O)c(C3NC(=O)NC4=C3C(=O)CCC4)cc2c1 (centres undefined),1000,500,100,500,250,250,250,500
O=C1CCCC2=C1C(c1cc3ccccc3[nH]c1=O)NC(=S)N2c1ccccc1 (centres undefined),250,500,150,100,100,250,150,200
